From ChEMBL document CHEMBL1158638, “MMP-13 selective isonipecotamide alpha-sulfone hydroxamates” (Bioorg Med Chem Lett, 2010)

What was measured:
[1] = molecular target: 72 kDa type IV collagenase (Homo sapiens, UniProt P08253); assay: Inhibition of MMP2
[2] = Selectivity ratio of IC50 for MMP2 to MMP13
Collagenase 3 = Collagenase 3 (Homo sapiens, UniProt P45452)
Interstitial collagenase = molecular target: T1, Interstitial collagenase (Homo sapiens, UniProt P03956); assay: Inhibition of MMP1
T1 sequence (P03956 whole entry): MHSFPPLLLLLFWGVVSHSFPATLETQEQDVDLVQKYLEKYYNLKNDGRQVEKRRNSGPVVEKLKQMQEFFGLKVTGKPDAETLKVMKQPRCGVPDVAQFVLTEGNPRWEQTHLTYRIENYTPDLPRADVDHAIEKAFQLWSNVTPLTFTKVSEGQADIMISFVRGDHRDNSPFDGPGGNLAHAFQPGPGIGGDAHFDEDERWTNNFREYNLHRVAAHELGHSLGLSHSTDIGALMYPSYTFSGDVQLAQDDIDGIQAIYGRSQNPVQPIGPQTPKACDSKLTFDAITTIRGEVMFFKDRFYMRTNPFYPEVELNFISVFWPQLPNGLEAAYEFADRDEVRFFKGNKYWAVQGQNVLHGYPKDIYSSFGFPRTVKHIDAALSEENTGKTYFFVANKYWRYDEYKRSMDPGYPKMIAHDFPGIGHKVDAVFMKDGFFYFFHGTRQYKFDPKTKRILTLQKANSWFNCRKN

Stromelysin-1 = Stromelysin-1 (Homo sapiens, UniProt P08254); assay: Inhibition of MMP3
Chain of Stromelysin-1 (P08254 whole entry): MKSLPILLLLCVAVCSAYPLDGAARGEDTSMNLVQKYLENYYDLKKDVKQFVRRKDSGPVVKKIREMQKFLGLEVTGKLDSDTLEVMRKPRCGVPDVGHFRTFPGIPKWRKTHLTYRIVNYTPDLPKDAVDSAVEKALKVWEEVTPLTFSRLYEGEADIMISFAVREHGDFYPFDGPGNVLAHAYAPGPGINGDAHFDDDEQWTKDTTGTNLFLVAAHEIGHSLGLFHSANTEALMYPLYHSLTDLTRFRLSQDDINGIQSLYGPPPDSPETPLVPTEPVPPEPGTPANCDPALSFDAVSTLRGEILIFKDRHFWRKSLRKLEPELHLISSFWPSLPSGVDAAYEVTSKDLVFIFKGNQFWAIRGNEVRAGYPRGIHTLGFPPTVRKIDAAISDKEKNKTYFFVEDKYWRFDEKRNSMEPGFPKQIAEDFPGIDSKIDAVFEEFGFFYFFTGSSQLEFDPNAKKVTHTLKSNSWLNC

Neutrophil collagenase = Neutrophil collagenase (Homo sapiens, UniProt P22894); assay: Inhibition of MMP8
Chain of Neutrophil collagenase (P22894 whole entry): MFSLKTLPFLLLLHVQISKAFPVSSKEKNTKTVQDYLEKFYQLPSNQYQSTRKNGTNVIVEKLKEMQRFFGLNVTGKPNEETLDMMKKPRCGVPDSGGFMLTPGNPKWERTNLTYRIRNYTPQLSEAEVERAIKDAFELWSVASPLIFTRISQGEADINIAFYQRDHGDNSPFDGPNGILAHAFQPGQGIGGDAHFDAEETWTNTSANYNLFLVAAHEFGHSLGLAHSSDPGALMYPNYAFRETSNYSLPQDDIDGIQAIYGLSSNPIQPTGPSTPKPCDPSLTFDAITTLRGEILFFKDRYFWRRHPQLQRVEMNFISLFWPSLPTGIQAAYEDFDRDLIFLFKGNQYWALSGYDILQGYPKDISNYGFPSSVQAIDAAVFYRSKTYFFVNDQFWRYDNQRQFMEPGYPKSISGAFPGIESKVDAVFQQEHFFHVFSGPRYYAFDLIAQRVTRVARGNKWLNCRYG

[3] = molecular target: Matrix metalloproteinase-9 (Homo sapiens, UniProt P14780); assay: Inhibition of MMP9
Chain of Matrix metalloproteinase-9 (P14780 whole entry): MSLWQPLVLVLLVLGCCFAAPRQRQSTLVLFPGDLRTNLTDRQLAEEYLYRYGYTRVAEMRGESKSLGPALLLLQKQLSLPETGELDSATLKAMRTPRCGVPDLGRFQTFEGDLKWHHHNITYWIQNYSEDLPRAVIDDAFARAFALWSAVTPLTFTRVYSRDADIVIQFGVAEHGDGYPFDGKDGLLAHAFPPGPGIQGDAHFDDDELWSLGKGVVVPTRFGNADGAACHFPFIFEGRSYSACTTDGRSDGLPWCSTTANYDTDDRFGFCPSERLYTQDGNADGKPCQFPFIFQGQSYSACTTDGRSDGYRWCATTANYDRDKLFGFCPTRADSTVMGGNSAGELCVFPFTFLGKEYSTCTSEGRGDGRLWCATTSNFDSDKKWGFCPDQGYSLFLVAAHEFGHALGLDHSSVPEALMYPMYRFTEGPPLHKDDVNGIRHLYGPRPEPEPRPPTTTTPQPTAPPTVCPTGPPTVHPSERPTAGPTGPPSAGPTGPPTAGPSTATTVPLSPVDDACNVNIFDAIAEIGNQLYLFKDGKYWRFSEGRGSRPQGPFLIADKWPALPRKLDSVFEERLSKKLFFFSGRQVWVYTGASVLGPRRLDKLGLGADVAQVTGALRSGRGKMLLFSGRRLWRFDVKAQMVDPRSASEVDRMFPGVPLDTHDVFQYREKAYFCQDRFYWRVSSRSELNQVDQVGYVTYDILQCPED

[4] = molecular target: Matrix metalloproteinase-14 (Homo sapiens, UniProt P50281); assay: Inhibition of MMP14
[5] = Half life in po dosed rat; format: ADME, organism-based; conditions: in vivo
[6] = Bioavailability in po dosed rat; format: ADME, organism-based; conditions: in vivo

Chain of 72 kDa type IV collagenase (P08253 whole entry): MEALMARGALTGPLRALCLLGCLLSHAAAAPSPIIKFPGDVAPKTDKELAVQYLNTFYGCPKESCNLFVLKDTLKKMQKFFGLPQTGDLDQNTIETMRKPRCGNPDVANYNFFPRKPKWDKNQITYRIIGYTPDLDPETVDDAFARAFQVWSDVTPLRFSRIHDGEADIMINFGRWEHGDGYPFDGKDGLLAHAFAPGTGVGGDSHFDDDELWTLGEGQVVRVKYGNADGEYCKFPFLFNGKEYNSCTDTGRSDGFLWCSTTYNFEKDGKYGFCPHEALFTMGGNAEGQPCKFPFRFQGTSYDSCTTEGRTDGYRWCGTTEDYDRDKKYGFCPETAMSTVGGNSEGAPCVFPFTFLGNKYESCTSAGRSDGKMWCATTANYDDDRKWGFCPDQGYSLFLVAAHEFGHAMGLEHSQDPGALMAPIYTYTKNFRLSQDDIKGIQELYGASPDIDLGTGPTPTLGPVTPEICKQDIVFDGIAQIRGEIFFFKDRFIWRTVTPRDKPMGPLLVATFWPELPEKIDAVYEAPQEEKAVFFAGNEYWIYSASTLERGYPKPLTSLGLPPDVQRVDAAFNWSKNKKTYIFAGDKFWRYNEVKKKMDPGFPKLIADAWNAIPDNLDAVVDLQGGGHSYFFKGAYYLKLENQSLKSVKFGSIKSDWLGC

SMILES	IC50 [1] [µM]	Ratio IC50 [2]	IC50 (Collagenase 3) [µM]	also measured
O=C(C1CCN(c2ccc(S(=O)(=O)C3(C(=O)NO)CCOCC3)cc2)CC1)N1CCc2ccccc2C1	2.1	233	0.009	
C#CCN(C)C(=O)C1CCN(c2ccc(S(=O)(=O)C3(C(=O)NO)CCOCC3)cc2)CC1	2.1	86	0.0245	
O=C(C1CCN(c2ccc(S(=O)(=O)C3(C(=O)NO)CCOCC3)cc2)CC1)N1CCN(c2ccccc2F)CC1		209		
O=C(C1CCN(c2ccc(S(=O)(=O)C3(C(=O)NO)CCOCC3)cc2)CC1)N1CCN(c2ccccn2)CC1		336		
O=C(C1CCN(c2ccc(S(=O)(=O)C3(C(=O)NO)CCOCC3)cc2)CC1)N1CCN(CCO)CC1		150		
O=C(C1CCN(c2ccc(S(=O)(=O)C3(C(=O)NO)CCOCC3)cc2)CC1)N1CCN(c2cnccn2)CC1		34		
COCCN1CCC(C(=O)NO)(S(=O)(=O)c2ccc(N3CCC(C(=O)N4CC(C)NC(C)C4)CC3)cc2)CC1 (centres undefined)	1.7	34	0.05	
Cc1cccc(N2CCN(C(=O)C3CCN(c4ccc(S(=O)(=O)C5(C(=O)NO)CCN(C6CC6)CC5)cc4)CC3)CC2)c1C	6.35		0.0277	IC50 (Interstitial collagenase): > 10 µM; IC50 (Stromelysin-1): 0.55 µM; IC50 (Neutrophil collagenase): 9.4 µM; IC50 [3]: > 10 µM; IC50 [4]: > 10 µM
O=C(C1CCN(c2ccc(S(=O)(=O)C3(C(=O)NO)CCOCC3)cc2)CC1)N1CCN(CCc2ccccc2)CC1	0.9	36	0.0251	
O=C(C1CCN(c2ccc(S(=O)(=O)C3(C(=O)NO)CCOCC3)cc2)CC1)N1CCN(c2ccncc2)CC1		58		
CC(=O)c1ccc(N2CCN(C(=O)C3CCN(c4ccc(S(=O)(=O)C5(C(=O)NO)CCOCC5)cc4)CC3)CC2)cc1		104		
Cc1ccc(N2CCN(C(=O)C3CCN(c4ccc(S(=O)(=O)C5(C(=O)NO)CCOCC5)cc4)CC3)CC2)c(C)c1		459		
COCCN1CCC(C(=O)NO)(S(=O)(=O)c2ccc(N3CCC(C(=O)N4CCN(c5cccc(C)c5C)CC4)CC3)cc2)CC1	0.4		0.07	IC50 (Interstitial collagenase): > 10 µM
CN(C)CCN1CCN(C(=O)C2CCN(c3ccc(S(=O)(=O)C4(C(=O)NO)CCOCC4)cc3)CC2)CC1	> 10	> 111		
CC1CN(C(=O)C2CCN(c3ccc(S(=O)(=O)C4(C(=O)NO)CCOCC4)cc3)CC2)CC(C)N1 (centres undefined)	7.3			
COc1ccccc1N1CCN(C(=O)C2CCN(c3ccc(S(=O)(=O)C4(C(=O)NO)CCOCC4)cc3)CC2)CC1		250		
COCCN1CCC(C(=O)NO)(S(=O)(=O)c2ccc(N3CCC(C(=O)Nc4ccccc4)CC3)cc2)CC1				IC50 (Interstitial collagenase): 10 µM; IC50 (Stromelysin-1): 0.37 µM; IC50 (Neutrophil collagenase): 10 µM; IC50 [3]: 1.23 µM; IC50 [4]: 10 µM; half-life [5]: 49.8 min; bioavailability [6]: 4.2%
COCCN1CCN(C(=O)C2CCN(c3ccc(S(=O)(=O)C4(C(=O)NO)CCOCC4)cc3)CC2)CC1	7	156	0.045	
Cc1cccc(N2CCN(C(=O)C3CCN(c4ccc(S(=O)(=O)C5(C(=O)NO)CCOCC5)cc4)CC3)CC2)c1C	6	1500	0.004	IC50 (Interstitial collagenase): > 10 µM; IC50 (Stromelysin-1): 0.16 µM; IC50 (Neutrophil collagenase): > 10 µM; IC50 [3]: > 10 µM; IC50 [4]: > 10 µM
CC(=O)N1CCN(C(=O)C2CCN(c3ccc(S(=O)(=O)C4(C(=O)NO)CCOCC4)cc3)CC2)CC1		50		
C=CCN(C)C(=O)C1CCN(c2ccc(S(=O)(=O)C3(C(=O)NO)CCOCC3)cc2)CC1	2.9	83	0.035	
COc1cc2c(cc1OC)CN(C(=O)C1CCN(c3ccc(S(=O)(=O)C4(C(=O)NO)CCOCC4)cc3)CC1)CC2	2.4			
CN(Cc1ccccc1)C(=O)C1CCN(c2ccc(S(=O)(=O)C3(C(=O)NO)CCN(C4CC4)CC3)cc2)CC1	3.5	175	0.02	
O=C(C1CCN(c2ccc(S(=O)(=O)C3(C(=O)NO)CCOCC3)cc2)CC1)N1CCN(c2ccc(F)cc2)CC1		267		
C[C@@H]1COC[C@H](C)N1C(=O)C1CCN(c2ccc(S(=O)(=O)C3(C(=O)NO)CCOCC3)cc2)CC1	> 10		0.0181	
O=C(C1CCN(c2ccc(S(=O)(=O)C3(C(=O)NO)CCOCC3)cc2)CC1)N1CCN(c2ncccn2)CC1		250		
CC(C)N1CCN(C(=O)C2CCN(c3ccc(S(=O)(=O)C4(C(=O)NO)CCOCC4)cc3)CC2)CC1		196		
